Experimental data: the NIST ThermoML archive (doi:10.1021/je400178k)
Numbers after ± are expanded uncertainties.

Experiment: molar heat capacity at constant pressure
Settings: 101 kPa, Liquid, Small sample (50 mg) DSC

| Compound | molar heat capacity at constant pressure (298.15 K) [J/K/mol] | molar heat capacity at constant pressure (303.15 K) [J/K/mol] | molar heat capacity at constant pressure (308.15 K) [J/K/mol] | molar heat capacity at constant pressure (313.15 K) [J/K/mol] | molar heat capacity at constant pressure (318.15 K) [J/K/mol] | molar heat capacity at constant pressure (323.15 K) [J/K/mol] | molar heat capacity at constant pressure (328.15 K) [J/K/mol] | molar heat capacity at constant pressure (333.15 K) [J/K/mol] | molar heat capacity at constant pressure (338.15 K) [J/K/mol] | molar heat capacity at constant pressure (343.15 K) [J/K/mol] | molar heat capacity at constant pressure (348.15 K) [J/K/mol] | molar heat capacity at constant pressure (353.15 K) [J/K/mol] |
| --- | --- | --- | --- | --- | --- | --- | --- | --- | --- | --- | --- | --- |
| CN1CCN(C)CC1 [1,4-dimethylpiperazine] | 216.5 ± 3.7 | 221.7 ± 3.7 | 222.1 ± 3.7 | 223.4 ± 3.7 | 224.6 ± 3.8 | 225.3 ± 3.8 | 225.7 ± 3.8 | 227.5 ± 3.8 | 228.5 ± 3.8 | 229.6 ± 3.8 | 231.7 ± 3.8 | 235.9 ± 3.9 |
| OCCN1CCOCC1 [4-morpholineethanol] | 263.9 ± 4.2 | 265.3 ± 4.3 | 267.1 ± 4.3 | 269.2 ± 4.3 | 270.8 ± 4.3 | 272.6 ± 4.3 | 274.3 ± 4.4 | 276.2 ± 4.4 | 278.7 ± 4.4 | 281 ± 4.4 | 283.2 ± 4.5 | 284.9 ± 4.5 |
| NCCCN1CCOCC1 [N-(3-aminopropyl)morpholine] | 296.2 ± 4.6 | 298.2 ± 4.7 | 299.6 ± 4.7 | 301.2 ± 4.7 | 302.8 ± 4.7 | 304.5 ± 4.7 | 306.1 ± 4.8 | 307.9 ± 4.8 | 309.6 ± 4.8 | 311.3 ± 4.8 | 312.7 ± 4.9 | 313.4 ± 4.9 |

The next lines start with the values.

| molar heat capacity at constant pressure (298.15 K) [J/K/mol] | molar heat capacity at constant pressure (303.15 K) [J/K/mol] | molar heat capacity at constant pressure (308.15 K) [J/K/mol] | molar heat capacity at constant pressure (313.15 K) [J/K/mol] | molar heat capacity at constant pressure (318.15 K) [J/K/mol] | molar heat capacity at constant pressure (323.15 K) [J/K/mol] | molar heat capacity at constant pressure (328.15 K) [J/K/mol] | molar heat capacity at constant pressure (333.15 K) [J/K/mol] | molar heat capacity at constant pressure (338.15 K) [J/K/mol] | molar heat capacity at constant pressure (343.15 K) [J/K/mol] | molar heat capacity at constant pressure (348.15 K) [J/K/mol] | molar heat capacity at constant pressure (353.15 K) [J/K/mol] | Compound |
| --- | --- | --- | --- | --- | --- | --- | --- | --- | --- | --- | --- | --- |
| 285 ± 4.5 | 289.9 ± 4.6 | 292.9 ± 4.6 | 296 ± 4.6 | 298.9 ± 4.7 | 301.7 ± 4.7 | 305 ± 4.8 | 308.1 ± 4.8 | 311 ± 4.8 | 313.9 ± 4.9 | 316.5 ± 4.9 | 319 ± 4.9 | OCCN1CCNCC1 [N-(2-hydroxyethyl)piperazine] |
| 213.9 ± 3.6 | 214.4 ± 3.6 | 215 ± 3.6 | 215.7 ± 3.6 | 216.4 ± 3.7 | 216.9 ± 3.7 | 217.3 ± 3.7 | 217.2 ± 3.7 | 215.5 ± 3.6 | 216.2 ± 3.7 | 217.6 ± 3.7 | 218 ± 3.7 | CN1CCNCC1 [N-methylpiperazine] |
